The molecules below were run against T1, Pyruvate Carboxylase (PC) (Bos taurus, UniProt Q29RK2) (assay: In vitro inhibition of pyruvate carboxylase (PC) activity, coupling method). Details: top concentration 50 μM.
T1 construct: purchased Sigma
T1 sequence (Q29RK2 21-1178): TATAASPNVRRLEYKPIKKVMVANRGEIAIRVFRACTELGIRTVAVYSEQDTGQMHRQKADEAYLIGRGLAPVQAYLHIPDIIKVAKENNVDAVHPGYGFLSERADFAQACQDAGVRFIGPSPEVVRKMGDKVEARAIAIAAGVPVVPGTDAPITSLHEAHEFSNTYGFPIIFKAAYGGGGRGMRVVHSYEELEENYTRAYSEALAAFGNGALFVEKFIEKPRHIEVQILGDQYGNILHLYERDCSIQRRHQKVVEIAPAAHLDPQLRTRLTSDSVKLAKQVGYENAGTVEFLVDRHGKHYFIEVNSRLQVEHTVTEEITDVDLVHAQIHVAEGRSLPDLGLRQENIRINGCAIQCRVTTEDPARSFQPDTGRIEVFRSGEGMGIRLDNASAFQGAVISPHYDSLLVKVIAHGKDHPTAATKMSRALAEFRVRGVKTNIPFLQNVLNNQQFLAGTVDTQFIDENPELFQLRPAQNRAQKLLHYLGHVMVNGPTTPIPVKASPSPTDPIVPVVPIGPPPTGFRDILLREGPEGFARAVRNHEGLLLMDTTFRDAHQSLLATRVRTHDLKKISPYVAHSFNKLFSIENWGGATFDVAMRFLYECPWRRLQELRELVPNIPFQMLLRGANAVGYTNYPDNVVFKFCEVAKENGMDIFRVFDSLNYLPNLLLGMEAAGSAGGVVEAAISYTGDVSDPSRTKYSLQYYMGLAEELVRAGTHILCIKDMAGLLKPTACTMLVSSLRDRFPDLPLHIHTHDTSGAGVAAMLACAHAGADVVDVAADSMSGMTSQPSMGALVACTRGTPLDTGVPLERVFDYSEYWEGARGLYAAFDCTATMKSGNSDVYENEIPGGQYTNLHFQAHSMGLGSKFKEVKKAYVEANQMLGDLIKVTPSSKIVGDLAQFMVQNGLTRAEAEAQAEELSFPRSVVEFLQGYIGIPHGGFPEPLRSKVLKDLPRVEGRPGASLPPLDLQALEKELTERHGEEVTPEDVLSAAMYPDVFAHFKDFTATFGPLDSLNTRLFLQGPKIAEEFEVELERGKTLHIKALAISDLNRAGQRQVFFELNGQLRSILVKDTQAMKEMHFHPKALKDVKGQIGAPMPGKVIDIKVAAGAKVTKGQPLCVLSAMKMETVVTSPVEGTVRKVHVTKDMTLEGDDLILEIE
Assay type: biochemical
Description: The in vitro analysis of the inhibitory effect of the present compound on PC activity was carried out by a coupling method. The PC reaction product oxaloacetate and β-NADH undergo a redox reaction under the catalysis of malate dehydrogenase, generating malic acid and NAD^+. Accordingly, the inhibition ability of the compound on PC can be reflected by detecting the change of absorbance value at 340 nm.
b. 65.7 μL PC enzyme reaction buffer (201 mM triethanolamine, 7.5 mM magnesium sulfate, 0.18% bovine serum albumin) was added to each well of a 96-well dilution plate (249944, Nunc), and then 1 μL of the serially diluted compound to be tested in step a was added to each well.
c. 10 μL of compound (prepared in step b) was added to each well of a 384-well test plate (3702, Corning). The reaction system with ZnCl2 at a final concentration of 500 μM was used as positive control; the reaction system with no compound but DMSO at a final concentration of 0.5% was used as negative control.
d. 10 μL of PC enzyme (Sigma, 0.15 U/ml stock solution of PC enzyme dissolved in 0.15 mM Tris-HCl pH 7.4, 0.006 mM Mg(AcO)2, 0.15% glycerol, and 0.003 mM EDTA) was added to each well of the 384-well test plate (prepared in step c), centrifuged at 1000 rpm for 1 min, and incubated at room temperature for 15 min.
e. 10 μL of substrate mixture (1.5 mM sodium pyruvate, 1.5 mM ATP, 0.15 mM acetyl-CoA, 45 mM sodium bicarbonate, 0.69 mM NADH, 3 U/ml malate dehydrogenase, 201 mM triethanolamine, 7.5 mM magnesium sulfate, and 0.18% bovine serum albumin) was added to each well of the 384-well test plate (prepared in step d), and centrifuged at 1000 rpm for 1 min. The final concentrations of each component in the PC enzymatic reaction system: 0.05 U/ml pyruvate carboxylase, 0.5 mM sodium pyruvate, 0.5 mM ATP, 15 mM sodium bicarbonate, 0.23 mM β-NADH, 1 U/ml malic acid dehydrogenase, and 0.05 mM acetyl-CoA. Test compound concentrations: 50 μM, 16.667 μM, 5.556 μM, 1.852 μM, 0.617 μM, 0.206 μM, 0.0686 μM, 0.0229 μM, 0.00763 μM, 0.00254 μM, 0.000847 μM and 0.000282 μM. The final concentration of DMSO was 0.5% (v/v).
f. The absorbance at 340 nm was read by using EnVision 2104 plate reader (Perkin Elmer) with reading every 1 min for 40 min.
GraphPad Prism 6 software was used to perform a linear fit, and the concentration of each compound and the slope of the positive and negative controls were calculated. The inhibition percentage was calculated according to the following formula: 100×[1−(compound−average value of positive control)/(average value of negative control−average value of positive control)].
IC50 of the compound was obtained using GraphPad Prism 6 software according to the following nonlinear fitting formula:
Y=Bottom+(Top−Bottom)/(1+10^((Log IC50−X)×HillSlope)), […]
With COc1ccccc1C(CN1C(=O)C2(CC(C(=O)O)C2)C(=O)c2c1sc(-c1ncco1)c2C)OC1CCOCC1 (mixture of isomers) [Compound 8, 7′-(2-(2-methoxyphenyl)-2-((tetrahydro-2H-pyran-4-yl)oxy)ethyl)-3′-methyl-2′-(oxazol-2-yl)-4′,6′-dioxo-6′,7′-dihydro-4′H-spiro[cyclobutane-1,5′-thieno[2,3-b]pyridine]-3-carboxylic Acid] the IC50 was greater than 50 µM.
Work on COc1ccccc1C(CN1C(=O)C2(CCC(C(=O)O)C2)C(=O)c2c1sc(-c1ncco1)c2C)OC1CCOCC1 (single isomer, unassigned) [Compound 5b, 7′-(2-(2-methoxyphenyl)-2-((tetrahydro-2H-pyran-4-yl)oxy)ethyl)-3′-methyl-2′-(oxazol-2-yl)-4′,6′-dioxo-6′,7′-dihydro-4′H-spiro[cyclopentane-1,5′-thieno[2,3-b]pyridine]-3-carboxylic Acid] yielded an IC50 greater than 50 µM.
For COc1ccccc1C(CN1C(=O)C2(CC(C(=O)O)C2)C(=O)c2c1sc(-c1ncco1)c2C)OC1CCOCC1 (single isomer, unassigned) [Compound 8d, 7′-(2-(2-methoxyphenyl)-2-((tetrahydro-2H-pyran-4-yl)oxy)ethyl)-3′-methyl-2′-(oxazol-2-yl)-4′,6′-dioxo-6′,7′-dihydro-4′H-spiro[cyclobutane-1,5′-thieno[2,3-b]pyridine]-3-carboxylic Acid], the IC50 was greater than 50 µM.
For COc1ccccc1[C@H](CN1c2sc(-c3ncco3)c(C)c2C(=O)[C@]2(C[C@H](C(=O)O)C2)C1=O)OC1CCOCC1 [Compound 8c, 7′-(2-(2-methoxyphenyl)-2-((tetrahydro-2H-pyran-4-yl)oxy)ethyl)-3′-methyl-2′-(oxazol-2-yl)-4′,6′-dioxo-6′,7′-dihydro-4′H-spiro[cyclobutane-1,5′-thieno[2,3-b]pyridine]-3-carboxylic Acid], the IC50 was greater than 50 µM.

Source: patent US20220041616A1, “SPIRO COMPOUND AND MEDICAL USES THEREOF” (The National Institutes of Pharmaceutical R&D Co., Ltd., priority 2018, published 2022)
